Marks after values point to notes of the source that are not given here. Where a SMILES comes first, the peptide text is derived from it.
Assay: Competitive microarray selectivity screening with α-2,8/9-PSA
Format: binding, Escherichia coli
Conditions: 10% competing α-2,8/9-PSA
Procedure: Competitive microarray screening with α-2,8/9-PSA was conducted in order to assess selective binding of peptides to α-2,8-PSA. The definition of percent selectivity at 10% competing glycan was applied to enable selectivity comparisons amongst a larger set of peptides[25] […] However, the use of an isomeric polymer is a more stringent assessment of selectivity; here, selective binding is guided by three-dimensional conformation and not additionally by differences in functional groups.
Peptide library synthesis, microarray preparation, and microarray screening were performed as described previously[25] with the following specifications. Siglec-related sequences were N-terminally acetylated to match the charge of the corresponding protein fragment. All peptides were printed in triplicate (60 nL spots), and each initial affinity screening was carried out at least three times. Screening was conducted with 10 μM colominic acid (CA; 5 mL per microarray), the Escherichia coli homolog of α-2,8-PSA identical in structure to human-derived PSA[67], and with antibody-based chemiluminescent detection of CA. For selectivity screening, microarrays were challenged with 10 μM CA with 0, 0.1, 1, and 10 μM α-2,8/9-PSA in separate conditions (5 mL total volume each), where molar concentrations were based on molecular weight estimation of synthesized 2,8/9-PSA (details on α-2,8/9-PSA production, purification, and analysis are provided in Supplementary Information). Selectivity screening with monomeric sialic acid was conducted with mass and molar equivalents of N-acetylneuraminic acid (Rose Scientific, Ltd.) along with 10 μM CA (5 mL total volume each). The mass equivalent amount of sialic acid (specifically, 970 μM sialic acid for a given volume of 10 μM CA) was calculated for CA of an average degree of polymerization of 100. For study of pH-dependent binding, affinity screening with CA was performed using PBS buffers of pH 6.0, 7.0, 7.4, and 8.0 (10 mM phosphate, 100 mM NaCl). The impact of NaCl on peptide binding was assessed at pH 7.4 with 0, 100, and 200 mM NaCl. […]

Compound: CC(=O)N[C@@H](Cc1ccccc1)C(=O)N[C@@H](CCCCN)C(=O)NCC(=O)N[C@@H](CCCNC(=N)N)C(=O)N[C@H](C(=O)N[C@@H](CO)C(=O)N1CCC[C@H]1C(=O)N[C@@H](CCCCN)C(=O)N[C@H](C(=O)NCC(=O)N[C@@H](C)C(=O)N1CCC[C@H]1C(=O)N[C@H](C(=O)N[C@@H](C)C(=O)N[C@H](C(N)=O)[C@@H](C)O)C(C)C)[C@@H](C)O)[C@@H](C)O [I-P24] (Ac-FKGRTSPKTGAPVAT-NH2)
- selectivity mark in Table 1: I-P24* (Peptides with selectivity >80%)

— article PMC7203153, “Rational identification and characterisation of peptide ligands for targeting polysialic acid” (Scientific Reports, 2020)
